Results taken from US12162872B2, “Cycloalkylurea derivative” (Sumitomo Pharma Co., Ltd., priority 2019, dated 2024).

Molecular target: T1, Human orexin receptor type 2 (Homo sapiens, UniProt O43614)
T1 construct: expressed in transfected cells; host or cells: CHO cells (transient expression)
T1 sequence (O43614 1-444): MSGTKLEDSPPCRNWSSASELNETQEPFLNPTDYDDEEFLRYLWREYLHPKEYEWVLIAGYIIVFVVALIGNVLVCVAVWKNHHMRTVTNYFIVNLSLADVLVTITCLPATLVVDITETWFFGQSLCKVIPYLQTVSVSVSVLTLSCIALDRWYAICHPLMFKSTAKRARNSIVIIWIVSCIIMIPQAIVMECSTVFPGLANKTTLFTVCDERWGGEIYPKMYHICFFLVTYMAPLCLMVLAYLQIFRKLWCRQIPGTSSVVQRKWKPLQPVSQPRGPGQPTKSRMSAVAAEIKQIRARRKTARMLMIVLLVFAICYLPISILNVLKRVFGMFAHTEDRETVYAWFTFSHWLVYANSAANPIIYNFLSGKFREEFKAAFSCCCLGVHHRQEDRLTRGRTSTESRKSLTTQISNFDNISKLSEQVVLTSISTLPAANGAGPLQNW
Assay: Test 2: Evaluation of agonist activity for orexin receptor type 2 (aequorin luminescence, intracellular calcium mobilization in CHO cells)
Format: cell-based
Conditions: relative percentage of luminescence for the luminescence (100%) of Orexin A (100 pM); CHO cells transiently expressing human orexin receptor type 2 and apoaequorin; Orexin A Lot. 671009
Method in brief: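 CHO cells transiently co-expressing the receptor and apoaequorin, incubated 16–22 h, were loaded 2 h at room temperature with 1 μM coelenterazine hcp (final). Compounds in Hanks/20 mM HEPES/0.1% BSA (0.1% DMSO final) were added and the calcium luminescence was read and expressed as % of Orexin A (100 pM).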

| SMILES | agonist activity (%) |
| --- | --- |
| CC(C)N1CCC(S(=O)(=O)[C@H]2CCCC(F)(F)[C@@H]2NC(=O)N2CCC(C)(c3noc([C@@H]4C[C@@H]4F)n3)CC2)CC1 [Example 155, N-{(1S,6S)-2,2-difluoro-6-[1-(propan-2-yl)piperidine-4-sulfonyl]cyclohexyl}-4-{5-[(1S,2S)-2-fluorocyclopropyl]-1,2,4-oxadiazol-3-yl}-4-methylpiperidine-1-carboxamide] | 167 |
| CC(C)N1CCN([C@H]2CCCC(C)(C)[C@@H]2NC(=O)N2CCC(C)(c3noc(C4CC4)n3)CC2)CC1 [Example 147, 4-(5-cyclopropyl-1,2,4-oxadiazol-3-yl)-N-{(1S,6S)-2,2-dimethyl-6-[4-(propan-2-yl)piperazin-1-yl]cyclohexyl}-4-methylpiperidine-1-carboxamide] | 373 |
| CC(C)N1CC[C@H](N[C@H]2CCCC(F)(F)[C@@H]2NC(=O)N2CCC(C)(c3noc([C@@H]4C[C@@H]4F)n3)CC2)C1 [Example 161, N-[(1R,6S)-2,2-Difluoro-6-{[(3S)-1-(propan-2-yl)pyrrolidin-3-yl]amino}cyclohexyl]-4-{5-[(1S,2S)-2-fluorocyclopropyl]-1,2,4-oxadiazol-3-yl}-4-methylpiperidine-1-carboxamide] | 374 |
| CC(C)N1CC(O[C@H]2CCCC(F)(F)[C@@H]2NC(=O)N2CCC(C)(c3noc([C@@H]4C[C@@H]4F)n3)CC2)C1 [Example 89, N-[(1R,6S)-2,2-difluoro-6-{[1-(propan-2-yl)azetidin-3-yl]oxy}cyclohexyl]-4-{5-[(1S,2S)-2-fluorocyclopropyl]-1,2,4-oxadiazol-3-yl}-4-methylpiperidine-1-carboxamide] | 0 |
| CC(C)OC1CCN([C@H]2CCCC(F)(F)[C@@H]2NC(=O)N2CCC(C)(c3noc([C@@H]4C[C@@H]4F)n3)CC2)CC1 [Example 101, N-[(1R,6S)-2,2-difluoro-6-{4-[(propan-2-yl)oxy]piperidin-1-yl}cyclohexyl]-4-{5-[(1S,2S)-2-fluorocyclopropyl]-1,2,4-oxadiazol-3-yl}-4-methylpiperidine-1-carboxamide] | 326 |
| CO[C@@H]1CN(C(C)C)C[C@H]1O[C@H]1CCCC(F)(F)[C@@H]1NC(=O)N1CCC(C)(c2noc([C@@H]3C[C@@H]3F)n2)CC1 [Example 108, N-[(1R,6S)-2,2-difluoro-6-{[(3R,4R)-4-methoxy-1-(propan-2-yl)pyrrolidin-3-yl]oxy}cyclohexyl]-4-{5-[(1S,2S)-2-fluorocyclopropyl]-1,2,4-oxadiazol-3-yl}-4-methylpiperidine-1-carboxamide] | 292 |
| CC(C)n1cc(O[C@H]2CCCC(F)(F)[C@@H]2NC(=O)N2CCC(C)(c3noc(C4CC4)n3)CC2)cn1 [Example 90, 4-(5-cyclopropyl-1,2,4-oxadiazol-3-yl)-N-[(1R,6S)-2,2-difluoro-6-{[1-(propan-2-yl)-1H-pyrazol-4-yl]oxy}cyclohexyl]-4-methylpiperidine-1-carboxamide] | 112 |
| CC(C)c1nccc(O[C@H]2CCCC(F)(F)[C@@H]2NC(=O)N2CCC(C)(c3noc([C@@H]4C[C@@H]4F)n3)CC2)n1 [Example 92, N-[(1R,6S)-2,2-difluoro-6-{[2-(propan-2-yl)pyrimidin-4-yl]oxy}cyclohexyl]-4-{5-[(1S,2S)-2-fluorocyclopropyl]-1,2,4-oxadiazol-3-yl}-4-methylpiperidine-1-carboxamide] | 16 |
| CC(C)N1CCC2(CCN([C@H]3CCCC(F)(F)[C@@H]3NC(=O)N3CCC(C)(c4noc([C@@H]5C[C@@H]5F)n4)CC3)CC2)C1 [Example 127, N-{(1R,6S)-2,2-difluoro-6-[2-(propan-2-yl)-2,8-diazaspiro[4.5]decan-8-yl]cyclohexyl}-4-{5-[(1S,2S)-2-fluorocyclopropyl]-1,2,4-oxadiazol-3-yl}-4-methylpiperidine-1-carboxamide] | 367 |
| CN(CC1(C)CC1)C1CCN([C@H]2CCCC(F)(F)[C@@H]2NC(=O)N2CCC(C)(c3noc([C@@H]4C[C@@H]4F)n3)CC2)CC1 [Example 134, N-[(1R,6S)-2,2-difluoro-6-(4-{methyl[(1-methylcyclopropyl)methyl]amino}piperidin-1-yl)cyclohexyl]-4-{5-[(1S,2S)-2-fluorocyclopropyl]-1,2,4-oxadiazol-3-yl}-4-methylpiperidine-1-carboxamide] | 456 |
| CC1(CN2CC[C@H](O[C@H]3CCCC(F)(F)[C@@H]3NC(=O)N3CCC(C)(c4noc([C@@H]5C[C@@H]5F)n4)CC3)C2)COC1 [Example 150, N-[(1R,6S)-2,2-difluoro-6-({(3S)-1-[(3-methyloxetan-3-yl)methyl]pyrrolidin-3-yl}oxy)cyclohexyl]-4-{5-[(1S,2S)-2-fluorocyclopropyl]-1,2,4-oxadiazol-3-yl}-4-methylpiperidine-1-carboxamide] | 437 |
| CC(C)N1CC[C@@H](N(C)[C@H]2CCCC(F)(F)[C@@H]2NC(=O)N2CCC(C)(c3noc([C@@H]4C[C@@H]4F)n3)CC2)C1 [Example 113, N-[(1R,6S)-2,2-difluoro-6-{methyl[(3R)-1-(propan-2-yl)pyrrolidin-3-yl]amino}cyclohexyl]-4-{5-[(1S,2S)-2-fluorocyclopropyl]-1,2,4-oxadiazol-3-yl}-4-methylpiperidine-1-carboxamide] | 374 |
| CCN(CC)C1CCN([C@H]2CCCC(F)(F)[C@@H]2NC(=O)N2CCC(C)(c3noc([C@@H]4C[C@@H]4F)n3)CC2)CC1 [Example 129, N-{(1R,6S)-6-[4-(diethylamino)piperidin-1-yl]-2,2-difluorocyclohexyl}-4-{5-[(1S,2S)-2-fluorocyclopropyl]-1,2,4-oxadiazol-3-yl}-4-methylpiperidine-1-carboxamide] | 435 |
| CC(C)N1C[C@H]2CC[C@@H](C1)[C@@H]2O[C@H]1CCCC(F)(F)[C@@H]1NC(=O)N1CCC(C)(c2noc([C@@H]3C[C@@H]3F)n2)CC1 [Example 104, N-[(1R,6S)-2,2-difluoro-6-{[(1R,5S,8S)-3-(propan-2-yl)-3-azabicyclo[3.2.1]octan-8-yl]oxy}cyclohexyl]-4-{5-[(1S,2S)-2-fluorocyclopropyl]-1,2,4-oxadiazol-3-yl}-4-methylpiperidine-1-carboxamide] | 289 |
| CC(C)CN(C)C1CCN([C@H]2CCCC(F)(F)[C@@H]2NC(=O)N2CCC(C)(c3noc([C@@H]4C[C@@H]4F)n3)CC2)CC1 [Example 157, N-[(1R,6S)-2,2-difluoro-6-{4-[methyl(2-methylpropyl)amino]piperidin-1-yl}cyclohexyl]-4-{5-[(1S,2S)-2-fluorocyclopropyl]-1,2,4-oxadiazol-3-yl}-4-methylpiperidine-1-carboxamide] | 392 |
| CN(CC1CC1)C1CCN([C@H]2CCCC(F)(F)[C@@H]2NC(=O)N2CCC(C)(c3noc([C@@H]4C[C@@H]4F)n3)CC2)CC1 [Example 158, N-[(1R,6S)-6-{4-[(cyclopropylmethyl)(methyl)amino]piperidin-1-yl}-2,2-difluorocyclohexyl]-4-{5-[(1S,2S)-2-fluorocyclopropyl]-1,2,4-oxadiazol-3-yl}-4-methylpiperidine-1-carboxamide] | 389 |
| CC(C)CN(C)[C@H]1CCN([C@H]2CCCC(F)(F)[C@@H]2NC(=O)N2CCC(C)(c3noc([C@@H]4C[C@@H]4F)n3)CC2)C1 [Example 128, N-[(1R,6S)-2,2-difluoro-6-{(3S)-3-[methyl(2-methylpropyl)amino]pyrrolidin-1-yl}cyclohexyl]-4-{5-[(1S,2S)-2-fluorocyclopropyl]-1,2,4-oxadiazol-3-yl}-4-methylpiperidine-1-carboxamide] | 402 |
| CC(C)CN1CC[C@H](O[C@H]2CCCC(F)(F)[C@@H]2NC(=O)N2CCC(C)(c3noc([C@@H]4C[C@@H]4F)n3)CC2)C1 [Example 107, N-[(1R,6S)-2,2-difluoro-6-{[(3S)-1-(2-methylpropyl)pyrrolidin-3-yl]oxy}cyclohexyl]-4-{5-[(1S,2S)-2-fluorocyclopropyl]-1,2,4-oxadiazol-3-yl}-4-methylpiperidine-1-carboxamide] | 363 |
| CC(C)Cc1cn([C@H]2CCCC(F)(F)[C@@H]2NC(=O)N2CCC(C)(c3noc([C@@H]4C[C@@H]4F)n3)CC2)nn1 [Example 94, N-{(1R,6S)-2,2-difluoro-6-[4-(2-methylpropyl)-1H-1,2,3-triazol-1-yl]cyclohexyl}-4-{5-[(1S,2S)-2-fluorocyclopropyl]-1,2,4-oxadiazol-3-yl}-4-methylpiperidine-1-carboxamide] | 382 |
| CC1(c2noc(C3CC3)n2)CCN(C(=O)N[C@@H]2[C@@H](O[C@H]3CCN(CC4CC4)C3)CCCC2(F)F)CC1 [Example 122, N-[(1R,6S)-6-{[(3S)-1-(cyclopropylmethyl)pyrrolidin-3-yl]oxy}-2,2-difluorocyclohexyl]-4-(5-cyclopropyl-1,2,4-oxadiazol-3-yl)-4-methylpiperidine-1-carboxamide] | 369 |
